According to US20260091209A1, “DRUG DELIVERY DEVICE” (priority 2022, published 2026):
Values belong to the compound of their own block, whether it stands above or below them.

Tests used:
[1] = Drug release rate into 50:50 DMSO:water release media, HPLC; format: physicochemical; details: for completeness of release after 7 days / course of release (plateau): FOLFIRINOX components from device, FIG. 5; for course of release (plateau): over 7 days
Experimental: Drug release rate was measured using 50 mL of release media consisting of 50:50 DMSO:water to ensure that all drugs in the composition remained under sink conditions. Each device was suspended above the release media in a 50 mL sealed Duran bottle with only the permeable release zone in contact with the release media. The Duran bottle was subsequently placed in a shaking incubator at 37° C. and 60 RPM. 5 mL samples of release media were removed and replaced with 5 mL of fresh media either every day for 6 days or at day 1, 3, 5 and 7. The samples were analysed for drug concentration using HPLC.
Release of the drug oxaliplatin by (i) an exposed sponge and (ii) a device according to the present invention was compared. The sponge was a gelatin sponge exposed to 50 mL of release media consisting of 50:50 DMSO. The sponge had the proportions 5 mm×10 mm×10 mm. […] The implantable device according to the invention contained a sponge within the enclosed space. Drug release was determined according to the methodology outlined above.
Release of the drug components of the FOLFIRINOX regimen from a device according to the invention was investigated. […] The implantable device according to the invention contained a sponge within the enclosed space. Drug release was determined according to the methodology outlined above.
The release of the drug irinotecan over 6 days through various membranes for use as the permeable release zone was investigated, to show how the device of the invention provides the skilled person with control over the release profile for the drug, by varying properties of the membrane.

[2] = tested on: pancreatic cancer; details: cited from earlier work
[3] = 1 mm EVA membrane, no pores, 75% infill

SMILES: CCc1c2c(nc3ccc(OC(=O)N4CCC(N5CCCCC5)CC4)cc13)-c1cc3c(c(=O)n1C2)COC(=O)[C@]3(O)CC [irinotecan]
- release rate, membrane pore sizes 3 mm, 4 mm and 5 mm ([1]; 4 pores each, over 6 days, FIG. 6D): as pore size increased the rate of release also increased
- completeness of release after 7 days [1, 3]: still not complete
- course of release (plateau) [1, 3]: began to plateau after three days
- release character across all membranes investigated ([1]; device, over 6 days): useful sustained release
- release rate, membrane thickness 1 mm versus 2 mm ([1]; device, over 6 days, FIG. 6A): released faster through the membrane with a thickness of 1 mm
- release rate, 3D printed membrane infill 50%, 75% and 100% ([1]; device, over 6 days, FIG. 6B): as the percentage infill increased, the release rate slowed
- release rate, membranes with one, two or four pores ([1]; pores 3 mm diameter, over 6 days, FIG. 6C): as the number of pores increased the rate of release also increased

SMILES: Nc1ccn([C@@H]2O[C@H](CO)[C@@H](O)C2(F)F)c(=O)n1 [gemcitabine]
- median disease-free survival ([2]; Conroy et al (2018), patients after surgery): 12.8 months
- disease-free survival rate at 3 years ([2]; Conroy et al (2018)): 21.4%
- median overall survival ([2]; Conroy et al (2018)): 35.0 months
- overall survival rate at 3 years ([2]; Conroy et al (2018)): 48.6%
- adverse events of grade 3 or 4, share of patients ([2]; Conroy et al.): 52.9%

SMILES: O=C1[O][Pt]2([NH][C@@H]3CCCC[C@H]3[NH]2)[O]C1=O [oxaliplatin]
- completeness of release after 7 days [1, 3]: still not complete
- course of release (plateau) [1, 3]: began to plateau after three days
- completeness of release at 7 days (168 hours) ([1]; device, 1 mm EVA membrane, no pores, 75% infill, sponge inside, FIG. 4): not complete
- release plateau ([1]; device, 1 mm EVA membrane, no pores, 75% infill, after 5 days, FIG. 4): 75%
- time to complete release ([1]; exposed gelatin sponge (comparative), FIG. 3): ≤ 7 h

The next lines start with the values.

- completeness of release after 7 days [1, 3]: still not complete
- course of release (plateau) [1, 3]: began to plateau after three days
SMILES: O=c1[nH]cc(F)c(=O)[nH]1 [fluorouracil]

- completeness of release after 7 days [1, 3]: still not complete
- course of release (plateau) [1, 3]: began to plateau after three days
SMILES: Nc1nc2c(c(=O)[nH]1)N(C=O)C(CNc1ccc(C(=O)N[C@@H](CCC(=O)O)C(=O)O)cc1)CN2 (stereo partly drawn) [leucovorin]
